# Where a SMILES comes first, the peptide text is derived from it. The star is where a group is joined. Cbz = O=C(OCc1ccccc1)*; CH2F = FC*
# Legend:
# caspase 3 = assay: Caspase 3 activity in S2-3 and Huh7T cells (Biovision kit); type: cell-based, human; settings: 40 hours treatment
# Method: FIG. 5B. The activation of caspase 3 (CDCA) in S2-3 cells treated with etoposide but not BFA/CHX/Z-VAD. The S2-3 cell and its parental cell Huh7T were either treated with SPDCA inducer BFA/CHX/ZVAD or CDCA inducer etoposide. The caspase activity was determined after […] treatment by Caspase 3 detection kit (Biovision, Mountain View, Calif.).
# The same level of apoptosis induced by etoposide in S2-3 cell and Huh7T cell was confirmed by the examination of caspase 3 activity in these cells. After 40 hours treatment, all cells were lysed in […] lysis buffer. […] lysate of each sample was analyzed for caspase 3 activity test using caspase 3 detected kits [Biovision, Mountain View, Calif.]. […] Additionally, the activity of caspase3 was not increased in the cells, in which SPDCA was induced by BFA/CHX, even by double doses [FIG. 5B, B/C/ZX2].
# G54 cells = assay: CDCA induced by etoposide in G54 cells; type: cell-based, human; settings: data not shown
# Method: (§1) To study the influence of HCV replication upon SPDCA, G54 and Huh7T cells (its parent cell) were seeded in a 60 mm dish. SPDCA was induced by BFA/CHX/Z-VAD. […] The insensitivity of HCV replicon cell to SPDCA was also seen subsequently by annexin staining. Compared to the parental cells, much fewer HCV expressing cells were stained by annexin after being treated with SPDCA inducers BFA/CHX/Z-VAD [FIG. 8C, Annexin]. DNA fragmentation study also support that the HCV expressing cells were more resistant to apoptosis. 70 hours treatment of BFA/CHX/Z-VAD obviously triggered the DNA fragmentation in Huh7T cell, but not in G54 cells [FIG. 8D]. […] In contrast, both HepG2.215 and G54 are sensitive to CDCA induced by etoposide [data not shown].
# Huh7T cells = assay: Etoposide induced CDCA in Huh7T cells, annexin stain; type: cell-based, human; settings: 400 μM etoposide, 40 hours, data not shown
# Method: (§2) FIG. 5A. S2-3 and Huh7T cells were treated with CDCA inducer 400 μM etoposide. After 40 hours, the cells apoptosis was examined in microscope and stained with annexin.
# (§3) 10^5 S2-3 and Huh7T cells were seeded in 60 mm dishes. When the cell reached 90% confluent, CDCA inducer etoposide was added. After 28-40 hours, the cell shrinkage, blebbing and detachment from culture was found in both cell lines. At the same time, the strong fluorescence stain by annexin was also observed in both cell lines [FIG. 5A]. The amount of apoptotic cells in two cell lines was very similar. Around 62% S2-3 cell was stained by annexin, while 58% of Huh7T cell was stained after 40 hours treatment [data not shown].
# S2-3 cells = assay: Etoposide induced CDCA in S2-3 cells, annexin stain; type: cell-based, human; settings: 400 μM etoposide, 40 hours, data not shown
# Method: as §2, §3
# HepG2.215 cells = assay: CDCA induced by etoposide in HepG2.215 cells; type: cell-based, human; settings: data not shown
# Method: as §1
# HCV replication = assay: Northern blot of HCV RNA in HCV replicon cells after antiviral treatment; type: cell-based, Hepatitis C virus; settings: 10^5 IU/ml overnight
# Method: (§4) FIG. 7A-7B. SPIK in the HCV expressing cells. SPIK RNA was detected in the cells with/without HCV replicon as before. HCV RNA was defined by the hybridization of membrane with radio-labeled probe specified HCV.
# (§5) FIG. 7B—HCV replicon cells were incubated with HCV polymerase inhibitor 888 (2 mM) 2 days (Lines 3 & 4 duplicate) and 10^5 IU/ml interferon-a overnight (Lines 5 & 6 duplicate) or left untreated (Line 1 & 2 duplicate). The suppressions of HCV RNA and SPIK RNA then were analyzed by Northern blot as before. The smear detected by HCV probe under the band of HCV RNA probably was the replication form of HCV.
# (§6) Over-expression of SPIK RNA in G54 cells can be abrogated by inhibition of HCV replication. Treatment of HCV replicon cells with either 2 mM of the HCV polymerase inhibitor 888 for two days or 10^5 IU/ml interferon-a overnight has reduced HCV replication by approximately 90% [FIG. 7B, lane 3-6]. This is consistent with previous reports of these antiviral agents (55, 56).
# SPIK RNA = assay: Northern blot of SPIK RNA in G54 HCV replicon cells after antiviral treatment; type: cell-based, human; settings: 10^5 IU/ml overnight
# Method: as §4, §5, §6
Molecule,caspase 3 activity (caspase 3),sensitivity to CDCA (G54 cells),cells stained by annexin (Huh7T cells) [%],cells stained by annexin (S2-3 cells),sensitivity to CDCA (HepG2.215 cells),reduction of HCV replication (HCV replication),SPIK level (SPIK RNA)
CC(NC(=O)C(NC(=O)OCc1ccccc1)C(C)C)C(=O)NC(CC(=O)O)C(=O)CF (stereo not drawn) [Z-VAD] (Cbz-Val-Ala-Asp-CH2F; configuration not given here),kept unchanged,–,–,–,–,–,–
COc1cc([C@@H]2c3cc4c(cc3[C@@H](O[C@@H]3O[C@@H]5CO[C@@H](C)O[C@H]5[C@H](O)[C@H]3O)[C@H]3COC(=O)[C@H]23)OCO4)cc(OC)c1O [etoposide],at the same level in both cells,sensitive,58,Around 62%,sensitive,–,–
interferon-a,–,–,–,–,–,approximately 90%,correspondingly decreased with HCV RNA
